Measured values published in patent publication US11629171B2, “Beta-hairpin peptidomimetics” (POLYPHOR AG, priority 2017, dated 2023).
≈ marks a conversion by molar mass, not a printed value. Where a SMILES comes first, the peptide text is derived from it. Bridges are numbered along the chain shown (N, C = ends). Roman numbers before positions name the chains, in order. [ ]: non-standard residue; d: D form. The star is where a group is joined. Thr(ol) = C[C@@H](O)[C@H](N)CO; Tle = CC(C)(C)[C@H](N)C(=O)O; NMeV = CN[C@H](C(=O)O)C(C)C; Hiv = CC(C)[C@H](O)C(=O)O; dDab = NCC[C@@H](N)C(=O)O; hSer = N[C@@H](CCO)C(=O)O; Dab = NCC[C@H](N)C(=O)O; Dap = NC[C@H](N)C(=O)O; OiPr = CC(C)O*

How the values were obtained:
Format in all cases: cell-based
[1] = tested on: human red blood cells (hRBC); assay: Hemolysis; conditions: red cells of human, 1 h, 200
In short: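 Hemoglobin release from PBS-washed hRBC at 20% (v/v), incubated 1 h at 37° C with peptides at 200 μg/mL, is measured at 540 nm. Values are blank corrected and given as a fraction of Triton X-100 lysis × 100%.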

Escherichia coli 926415 = conditions: 926415
In short: (§1)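 Visible-growth endpoint after 18-20 h at 35° C defines the MIC (μg/mL). Setup: CLSI broth microdilution, MH-II cation-adjusted broth with P-80 at 0.002% final, inoculum of approximately 10^6 CFU/mL, two-fold serial peptide dilutions.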

[2] = tested on: Enterobacter cloacae 848840; conditions: 848840
In short: as §1

[3] = tested on: Escherichia coli ATCC 25922; conditions: ATCC 25922
In short: as §1

[4] = tested on: Klebsiella pneumoniae SSI #3010; conditions: SSI #3010
In short: as §1

[5] = tested on: Pseudomonas aeruginosa ATCC 27853; conditions: ATCC 27853
In short: as §1

[6] = tested on: Acinetobacter baumannii 872842; conditions: 872842
In short: as §1

[7] = tested on: Acinetobacter baumannii DSM 30008; conditions: DSM 30008
In short: as §1

[8] = tested on: Klebsiella pneumoniae 968733; conditions: 968733
In short: as §1

| MIC (Escherichia coli 926415) | MIC [2] | MIC [3] | MIC [4] | MIC [5] | MIC [6] | MIC [7] | MIC [8] | SMILES | Hemolysis at 200 μg/mL [1] |
| --- | --- | --- | --- | --- | --- | --- | --- | --- | --- |
| 4 µg/mL (≈ 1.64 µM) | 2 µg/mL (≈ 0.819 µM) | 0.25 µg/mL (≈ 0.102 µM) | 0.5 µg/mL (≈ 0.205 µM) | 0.5 µg/mL (≈ 0.205 µM) | 1 µg/mL (≈ 0.41 µM) | 0.25 µg/mL (≈ 0.102 µM) | 2 µg/mL (≈ 0.819 µM) | CC(=O)N[C@H](C(=O)N[C@H]1CSSC[C@@H](C(=O)N[C@@H](CO)C(=O)OC(C)C)NC(=O)[C@H](C(C)(C)C)NC(=O)[C@H](CO)NC(=O)[C@H](Cc2c[nH]c3ccccc23)NC(=O)[C@H](CO)NC(=O)[C@@H](CCN)NC(=O)[C@H](CCC(=O)N[C@@H](CCN)C(=O)N[C@H](C(=O)N[C@@H](CN)C(=O)N[C@H]2CCNC(=O)[C@H]([C@@H](C)O)NC(=O)[C@H](CCN)NC(=O)[C@H](CCN)NC(=O)[C@H](CC(C)C)NC(=O)[C@@H](CC(C)C)NC(=O)[C@H](CCN)NC2=O)[C@@H](C)O)NC(=O)[C@H](CN)NC(=O)[C@H](Cc2ccc(O)cc2)NC1=O)C(C)C [Ex. 122] (I: Ac-VCY[Dap]E[dDab]SWS[Tle]CS-OiPr / II: [Dab]T[Dap][Dab][Dab][dL]L[Dab][Dab]T; disulfide I:2-I:11; amide I:5-II:N; lactam II:4-II:C) | 1% |
| 0.5 µg/mL (≈ 0.206 µM) | 0.25 µg/mL (≈ 0.103 µM) | 0.0625 µg/mL (≈ 0.0257 µM) | 0.125 µg/mL (≈ 0.0515 µM) | 0.25 µg/mL (≈ 0.103 µM) | 0.125 µg/mL (≈ 0.0515 µM) | 0.125 µg/mL (≈ 0.0515 µM) | 0.25 µg/mL (≈ 0.103 µM) | CC(C)C[C@@H]1NC(=O)[C@@H](CC(C)C)NC(=O)[C@H](CCN)NC(=O)[C@@H](NC(=O)[C@H](CCN)NC(=O)[C@@H](NC(=O)[C@H](CCN)NC(=O)CC[C@@H]2NC(=O)[C@H](CN)NC(=O)[C@H](Cc3ccc(O)cc3)NC(=O)[C@@H](NC(=O)[C@@H](O)C(C)C)CSSC[C@@H](C(=O)N[C@H](CO)[C@@H](C)O)NC(=O)[C@H](C(C)(C)C)NC(=O)[C@H](CCC(=O)O)NC(=O)[C@H](Cc3c[nH]c4ccccc34)NC(=O)[C@H]([C@@H](C)O)NC(=O)[C@@H](CCN)NC2=O)[C@@H](C)O)CCNC(=O)[C@H]([C@@H](C)O)NC(=O)[C@H](CCN)NC(=O)[C@H](CCN)NC1=O [Ex. 90] (I: H-[Hiv]CY[Dap]E[dDab]TWE[Tle]C[Thr(ol)] / II: [Dab]T[Dab][Dab][Dab][dL]L[Dab][Dab]T; disulfide I:2-I:11; amide I:5-II:N; lactam II:4-II:C) | <1% |
| 1 µg/mL (≈ 0.432 µM) | 0.5 µg/mL (≈ 0.216 µM) | 0.0625 µg/mL (≈ 0.027 µM) | 0.25 µg/mL (≈ 0.108 µM) | 0.125 µg/mL (≈ 0.054 µM) | 1 µg/mL (≈ 0.432 µM) | 0.125 µg/mL (≈ 0.054 µM) | 4 µg/mL (≈ 1.73 µM) | CN[C@H](C(=O)N[C@H](C(=O)N[C@@H](Cc1ccc(O)cc1)C(=O)N[C@H]1CSSC[C@@H](C(=O)N[C@H](C(=O)N[C@@H](CO)C(N)=O)C(C)C)NC(=O)[C@H](Cc2c[nH]c3ccccc23)NC(=O)[C@H](CCO)NC(=O)[C@@H](CCN)NC(=O)[C@H](CCC(=O)N[C@@H](CCN)C(=O)N[C@H](C(=O)N[C@@H](CCN)C(=O)N[C@H]2CCNC(=O)[C@H]([C@@H](C)O)NC(=O)[C@H](CCN)NC(=O)[C@H](CCN)NC(=O)[C@H](CC(C)C)NC(=O)[C@@H](CC(C)C)NC(=O)[C@H](CCN)NC2=O)[C@@H](C)O)NC1=O)[C@@H](C)O)C(C)C [Ex. 12] (I: H-[NMeV]TYCE[dDab][hSer]WCVS-NH2 / II: [Dab]T[Dab][Dab][Dab][dL]L[Dab][Dab]T; disulfide I:4-I:9; amide I:5-II:N; lactam II:4-II:C) | 2% |
| 0.125 µg/mL (≈ 0.052 µM) | 0.5 µg/mL (≈ 0.208 µM) | 0.0625 µg/mL (≈ 0.026 µM) | 0.0625 µg/mL (≈ 0.026 µM) | 0.125 µg/mL (≈ 0.052 µM) | 0.125 µg/mL (≈ 0.052 µM) | 0.0625 µg/mL (≈ 0.026 µM) | 0.25 µg/mL (≈ 0.104 µM) | CC(=O)N[C@H](C(=O)N[C@H]1CCNC(=O)C[C@@H](C(=O)N[C@@H](CO)C(N)=O)NC(=O)[C@H](C(C)(C)C)NC(=O)[C@H](CO)NC(=O)[C@H](Cc2c[nH]c3ccccc23)NC(=O)[C@H](CCN)NC(=O)[C@@H](CCN)NC(=O)[C@H](CCC(=O)N[C@@H](CCN)C(=O)N[C@H](C(=O)N[C@@H](CN)C(=O)N[C@H]2CCNC(=O)[C@H]([C@@H](C)O)NC(=O)[C@H](CCN)NC(=O)[C@H](CCN)NC(=O)[C@H](CC(C)C)NC(=O)[C@@H](CC(C)C)NC(=O)[C@H](CCN)NC2=O)[C@@H](C)O)NC(=O)[C@H](CO)NC(=O)[C@H](Cc2ccc(O)cc2)NC1=O)C(C)C [Ex. 265] (I: Ac-V[Dab]YSE[dDab][Dab]WS[Tle]DS-NH2 / II: [Dab]T[Dap][Dab][Dab][dL]L[Dab][Dab]T; lactam I:2-I:11, II:4-II:C; amide I:5-II:N) | <1% |
